Patent publication US20200069775A1, “BRAIN OSTEOCALCIN RECEPTOR AND COGNITIVE DISORDERS” (The Trustees of Columbia University in the City of New York, priority 2017, published 2020)

Key:
[1] = tested on: Osteocalcin−/− embryos and adult offspring of Osteocalcin−/− mothers; experiment: Osteocalcin injections in pregnant Osteocalcin−/− mothers, analysis of offspring; format: in vivo, mouse
Description: Osteocalcin−/−, Gprc6a−/−, Osteocalcin-mCherry, and Osteocalcin foxed mice have been previously described (Ducy et al., 1996, Nature 382:448-452; Oury et al., 2011, Cell 144:796-809). Mouse genotypes were determined by PCR. For all experiments, controls were littermate female WT, Cre-expressing, or flox/flox. All mice were maintained on a pure 129-Sv genetic background except for the inducible deletion Osteocalcin model (mix background: 25% C57/BL6 and 75% 129sv). For inducible gene deletion mice, tamoxifen was prepared in corn oil and injected intraperitoneally (IP) (1 mg/20g of body weight) over one week. For osteocalcin delivery to pregnant mice, IP injections (240 ng/day) were performed as soon as a plug was present daily until delivery (E0.5-E18.5). For osteocalcin or leptin infusion in adult Osteocalcin−/− or ob/ob mice, pumps (Alzet micro-osmotic pump, Model 1002) delivering osteocalcin (300 ng/hr), leptin (50 ng/hr), or vehicle were surgically installed subcutaneously in the backs of 3-month old mice. For the postnatal rescue of cognitive functions in Osteocalcin−/− mice, osteocalcin (10 ng/hour) or vehicle were delivered intrasubventricularly (icv) as previously described (Ducy et al., 2000, Cell 100:197-207). Leptin and osteocalcin content in sera and tissues were determined by ELISA.
Cresyl violet staining to visualize brain morphology was carried out by incubating 20 μm cryosections defatted with 1:1 chloroform:ethanol in cresyl violet acetate (1 g/L) overnight. The stain was differentiated using ethanol and xylene and mounted using DPX mounting medium for histology (Sigma).
To assess apoptosis in WT and Osteocalcin−/− brains, 20 μm cryostat sections were processed using theAPOPTAG® Fluorescein Direct In Situ Apoptosis Detection Kit (Millipore) according to manufacturer's protocol. Images were obtained using Leica DM 4000B, and Image J was used to quantify cell number and intensity of staining.
For western blotting, frozen hippocampi from E18.5 embryos were lysed and homogenized in 250 μl tissue lysis buffer (25 mM Tris HCl 7.5; 100 mM NaF; 10 mM Na4P2O7; 10 mmM EDTA; 1% NP 40). Samples were pooled together in threes by genotype to reduce variability. Proteins were transferred to nitrocellulose membranes and blocked with TBST-5% milk prior to overnight incubation with primary antibody in TBST-5% BSA. HRP-coupled secondary antibodies and ECL were used to visualize the signal.
To further evaluate the importance of maternal osteocalcin for the acquisition of spatial learning and memory in adult offspring, pregnant Osteocalcin^−/− mothers from E0.5 to E18.5 were treated with injections, once a day, of osteocalcin (240 ng/day). Osteocalcin was never injected in these females or their pups after delivery. […] Likewise, the number of apoptotic cells was reduced and the number of NeuN positive cells was increased compared to Osteocalcin^−/− embryos originating from Osteocalcin^−/− mothers that were not injected (FIG. 7I-J).

[2] = tested on: Bdnf accumulation in the hippocampus; experiment: BDNF accumulation (Western blot) in hippocampus after peripheral osteocalcin; format: in vivo, mouse; conditions: WT mice injected peripherally, 16 hours (FIG. 13h)
Description: FIG. 13. Exogenous osteocalcin improves anxiety and cognition in aged WT mice. (Panel a) EPMT performed in aged mice receiving plasma from aged, young WT, or young Ocn−/− mice, and aged WT mice receiving plasma from young Ocn−/− supplemented with 90 ng/g osteocalcin. Number of entries and time spent (s) in the open arms were scored. (Panel b) NOR performed in aged WT mice receiving plasma from WT mice either aged or young, or from young Ocn−/− mice or from young Ocn−/− supplemented with 90 ng/g osteocalcin. Preference index (time spent with novel object/total exploration time) was measured for each group. (Panel c) BDNF accumulation (representative Western blot, left) and quantification of band intensities (right) in hippocampi of aged WT mice receiving plasma from WT, either aged or young, or from young Ocn−/− mice. α-Tubulin is used as a loading control. (Panel d) DLT performed in 12 and 16 month-old WT mice treated with vehicle or osteocalcin. Number of entries in the lit compartment was measured. (Panel e) EPMT performed in 12 and 16 month-old WT mice treated with vehicle or osteocalcin. Time spent in the lit compartment and open arms was measured. (Panel f) MWMT performed over 10 days in 12 and 16 month-old WT mice treated with vehicle or osteocalcin. […] Preference index (time spent with novel object/total exploration time) was measured for each group. […]

[3] = Osteocalcin−/− embryos, injected vs not injected Osteocalcin−/− mothers
[4] = mothers injected 240 ng/day once a day E0.5 to E18.5

Q: What does the source list for “osteocalcin: Recombinant osteocalcin bacterially produced, cleaved from the GST subunit; completely undercarboxylated at all three sites; full-length mouse osteocalcin (YLGASVPSPDPLEPTREQCELNPACDELSDQYGLKTAYKRIYGITI)”?
A: Caspase-3 cleaved protein level in the hippocampus (Western blot) ([1]; Osteocalcin−/− E18.5 embryos, injected vs not injected mothers): decrease in Caspase-3 cleaved protein level; number of NeuN positive cells [1, 3]: increased; number of apoptotic cells [1, 3]: reduced; number of apoptotic cells ([1]; Osteocalcin−/− embryos, injected vs not injected Osteocalcin−/− mothers, listed as Uncarboxylated osteocalcin): prevent this neuronal apoptosis; thickness defect in the CA3 and CA4 regions of the hippocampus ([1]; adult Osteocalcin−/− originating from Osteocalcin−/− mothers): rescue of the thickness defect; cerebral ventricle enlargement (cresyl violet) ([1]; brains of E18.5 Osteocalcin−/− embryos, injected mothers): rescue of the cerebral ventricle enlargement; anxiety or depression phenotypes of Osteocalcin−/− offspring [1, 4]: did not have any beneficial effect; deficit in learning and memory of Osteocalcin−/− offspring [1, 4]: rescued over two third of their deficit; Bdnf accumulation in the hippocampi [2]: increased
